BigSolDB 2.1

Cc1cc(C)c(C(=O)P(=O)(C(=O)c2c(C)cc(C)cc2C)c2ccccc2)c(C)c1
Details | solubility (mole fraction)
in acetonitrile, 295.4 K | 0.00463
in acetonitrile, 303.2 K | 0.00793
in acetonitrile, 308 K | 0.0108
in acetonitrile, 313.3 K | 0.0154
in acetonitrile, 318.1 K | 0.0225
in acetonitrile, 323.2 K | 0.03
in acetonitrile, 328.1 K | 0.0421
in acetonitrile, 333.2 K | 0.0611
in acetonitrile, 338.1 K | 0.0863
in cyclohexane, 295.4 K | 0.0016
in cyclohexane, 303.2 K | 0.00239
in cyclohexane, 308.3 K | 0.00323
in cyclohexane, 313.1 K | 0.00414
in cyclohexane, 318.2 K | 0.00542
in cyclohexane, 323.4 K | 0.00732
in cyclohexane, 328.1 K | 0.00966
in cyclohexane, 333.2 K | 0.0123
in cyclohexane, 338.1 K | 0.017
in cyclohexane, 343.3 K | 0.0217
in ethanol, 295.4 K | 0.00372
in ethanol, 303.2 K | 0.00627
in ethanol, 307.2 K | 0.00827
in ethanol, 313.1 K | 0.0119
in ethanol, 318 K | 0.0161
in ethanol, 324.1 K | 0.0239
in ethanol, 328.3 K | 0.0326
in ethanol, 333.2 K | 0.0471
in ethyl acetate, 295.4 K | 0.0178
in ethyl acetate, 303.2 K | 0.0259
in ethyl acetate, 307.9 K | 0.0326
in ethyl acetate, 313.2 K | 0.0406
in ethyl acetate, 318.2 K | 0.0508
in ethyl acetate, 323.3 K | 0.064
in ethyl acetate, 328.2 K | 0.0842
in ethyl acetate, 333 K | 0.103
in ethyl acetate, 338.1 K | 0.127
in ethyl acetate, 343.2 K | 0.16
in isopropanol, 295.4 K | 0.00278
in isopropanol, 305.2 K | 0.0055
in isopropanol, 308.2 K | 0.0068
in isopropanol, 313.3 K | 0.0098
in isopropanol, 318 K | 0.0137
in isopropanol, 324.1 K | 0.0205
in isopropanol, 328.1 K | 0.0281
in isopropanol, 333.2 K | 0.04
in isopropanol, 338.3 K | 0.0556
in isopropanol, 343.2 K | 0.0793
in methanol, 295.4 K | 0.00235
in methanol, 303.2 K | 0.00434
in methanol, 308.3 K | 0.00629
in methanol, 313.1 K | 0.00909
in methanol, 318.2 K | 0.0134
in methanol, 323.4 K | 0.0195
in methanol, 328 K | 0.0283
in methanol, 333.2 K | 0.0427
in n-hexane, 295.4 K | 0.00151
in n-hexane, 303.2 K | 0.00218
in n-hexane, 308.1 K | 0.00277
in n-hexane, 313.2 K | 0.00323
in n-hexane, 318.1 K | 0.00389
in n-hexane, 322.9 K | 0.00442
in n-hexane, 328.1 K | 0.00525
in n-hexane, 333.2 K | 0.00635
